Experimental data published in the NIST ThermoML archive (doi:10.1016/j.fluid.2015.12.032).
± gives the expanded uncertainty stated by the source.

Conditions: 101.33 kPa, Liquid, Falling or rolling sphere viscometry

CCCC[N+]1(C)CCOCC1.N#C[C-](C#N)C#N [4-butyl-4-methylmorpholinium tricyanomethanide]
Conditions | viscosity [mPa·s]
288.15 K | 500.4 ± 47
298.15 K | 225.5 ± 17
308.15 K | 118.4 ± 8
318.15 K | 69.89 ± 4.4
328.15 K | 44.14 ± 2.8
338.15 K | 30.31 ± 1.9
348.15 K | 21.9 ± 1.4
358.15 K | 16.33 ± 1
368.15 K | 12.77 ± 0.79
